Assay results taken from patent US7148250B2, “Indoles as NAALADase inhibitors” (Guilford Pharmaceuticals Inc., priority 2001, dated 2006).
Where a SMILES comes first, the peptide text is derived from it.

Tests used:
NAALADase = conditions: read-out: Km of NAALADase for NAAG; cited from earlier work
[1] = system: Brown Norway rats with unilateral elevation of intraocular pressure; assay: Experimental rat glaucoma (IOP elevation), optic nerve fiber counting; type: in vivo; conditions: 8 week group, 10 mg/kg i.p. daily
Experimental: (§1) All experiments complied with the Association for Research in Vision and Ophthalmology Statement for the Use of Animals in Ophthalmic and Vision Research. 82 male Brown Norway rats (Rattus norvegicus), each weighing approximately 250 gm, were treated using procedures approved by the Animal Care Committee of the Johns Hopkins University School of Medicine. The rats were housed with a 12 hour light/12 hour dark cycle and fed ad libitum.
EXPERIMENTAL GLAUCOMA: Unilateral elevation of intraocular pressure (“IOP”) was produced in 56 rats by microinjection of hypertonic saline into episcleral veins, following procedures described in Morrison, J. et al., IOVS (March 1998) 39:526–531. Beginning on the day of IOP elevation, the rats were treated daily with intraperitoneal injections of either a vehicle (23 rats with 50 mM HEPES-buffered saline) or a NAALADase inhibitor (11 rats with 10 mg/kg of Compound A and 22 rats with 10 mg/kg of Compound B). 11 saline treated rats, 11 Compound A treated rats and 11 Compound B treated rats were sacrificed at 8 weeks, and the remaining rats at 12 weeks, after initial IOP elevation.
(§2) OPTIC NERVE COUNTING: The rats were sacrificed by exsanguination under deep pentobarbital anesthesia. They were perfused through the heart with 2% paraformaldehyde/2% glutaraldehyde in 0.1 M phosphate buffer, pH 7.2, and the eyes with attached optic nerves were removed. A cross-section of the optic nerve from both experimental (glaucoma or transection) and control eyes was removed 1.5 mm posterior to the globe, 1 mm in thickness, and post-fixed in 2% osmium tetroxide in buffer. These were processed into epoxy resin, sectioned at 1 micron and stained with toluidine blue.
(§3) The area of the optic nerve cross-section was measured by outlining its outer border at 10× magnification on an image analysis system (Universal Imaging Corp., Westchester, Pa.) with Synsys digital camera and Metamorph software. Three area measurements were taken and the mean value was determined. To measure the density and fiber diameter distributions, images were captured with a 100× phase contrast objective from 10 different areas of each nerve. These were edited to eliminate non-neural objects and the size of each axon internal to the myelin sheath (its minimum diameter) and the density of axons/square mm were calculated for each image and nerve. The mean density was multiplied by total nerve area to yield fiber number for each nerve. The total fiber number in glaucoma or transection nerves was compared to the normal, fellow eye of each rat to yield a percent loss value. The number of axons counted among the 10 images was an approximately 20% sample of the 80–90,000 axons in normal rat nerves. The person measuring axon number was masked to the protocol conducted on the nerves.

STZ-diabetic rats [2] = assay: Diabetic neuropathy in STZ model (nerve conduction velocity); type: in vivo, rat; conditions: 10 mg/kg daily, 4, 8 and 12 weeks
Experimental: Motor and sensory nerve conduction velocity was also measured in STZ-diabetic animals after 4, 8 and 12 weeks of treatment (see De Koning et al., supra, for a description of the experimental method). Briefly, stimulating needle electrodes were inserted close to the sciatic and tibial nerves with recording electrodes being placed subcutaneously over the distal foot muscles, in anesthetized rats.

[3] = system: Brown Norway rats with unilateral optic nerve transection; assay: Optic nerve transection, optic nerve fiber counting; type: in vivo, Rattus norvegicus; conditions: for FIBER NUMBER ± SEM / PERCENT DIFFERENCE ± SEM in fiber number between transected and normal eye: 10 mg/kg i.p. daily
Experimental: as §1
OPTIC NERVE TRANSECTION: The optic nerve was transected unilaterally in 26 rats under intraperitoneal pentobarbital anesthesia. The conjunctiva was opened with scissors and the optic nerve exposed by traction on extraocular muscles. The transection was performed with microscissors 5 mm posterior to the globe, with specific attention to avoidance of injury to major ocular blood vessels. Immediately after transection, the retina was examined ophthalmoscopically to assure that the retinal arterial blood supply was not disrupted. The conjunctiva was closed with absorbable suture and the eye dressed with antibiotic ointment. Beginning on the day of transection, the rats were treated daily with intraperitoneal injections of either a vehicle (9 rats with 50 mM HEPES-buffered saline) or a NAALADase inhibitor (8 rats with 10 mg/kg of Compound A and 9 rats with 10 mg/kg of Compound B). 5 saline treated rats, 3 Compound A treated rats and 4 Compound B treated rats were sacrificed at 2 weeks, and the remaining rats at 4 weeks, after transection.
as §2, §3

BB/W diabetic rats = assay: Progression of neuropathic pain and nerve conduction deficits in BB/W model; type: in vivo, rat
Source text: Male BB/W rats (BRI, Mass) spontaneously develop a cell mediated autoimmune destruction of pancreatic B cells, resulting in onset of insulin-dependent (Type I) diabetes (Guberski 1994). […] This renders them valuable for experimental trials of new compounds for future treatments of this major disorder. In the present study, Compound D and Compound A were examined for their ability to alter the progression of diabetic neuropathy. The rats received daily injection of Compound D or Compound A (10 mg/kg i.p.) or vehicle, starting at the onset of diabetes (hyperglycemia) and up to 6 months thereafter. Another group of non-diabetic rats also receiving vehicle were tested. All animals were continuously monitored for body weight, urine volume, blood sugar and glycated haemoglobin. In the first month of the study, all animals were tested for thermal nociception in a Hargreaves apparatus, weekly. After the first month this was done biweekly and then monthly. The testing consists of directing an infrared heat source onto the dorsal surface of the rat hindpaw and noting the time taken for the animal to remove its paw (see Hargreaves et al., supra, for a description of the experimental method). Each animal was tested 8 times and the mean withdrawal latency noted.
Nerve conduction velocity was also measured every two weeks through the first eight weeks of treatment and every month thereafter through to the six months of treatment (see De Koning et al., Peptides, Vol. 8, No. 3, pp. 415–22 (1987) for a description of the experimental method). […] This was apparent starting at 8 weeks of treatment and persisted to a similar degree through to the six month termination point of the study.

STZ-diabetic rats [4] = assay: Neuropathic pain in STZ model (thermal withdrawal latency); type: in vivo, rat; conditions: 10 mg/kg i.p. daily, treatment from 45 days post STZ
Experimental: Male Sprague-Dawley rats (200–225 g) were rendered diabetic by intravenous administration of streptozotocin (“STZ”, 70 mg/kg in phosphate buffered saline). Diabetic animals were divided into five groups: one group receiving Compound A (10 mg/kg or 1 mg/kg), Compound D (10 mg/kg or 1 mg/kg) or vehicle. Another group of animals (non-STZ treated) served as non-diabetic controls. Drug/vehicle treatment was started in diabetic animals 45 days post-STZ administration. STZ-induced diabetic rats were tested for sensitivity to a heat source as soon as blood glucose levels rose to 320 mg/dl or above (30 days post STZ). The rats were then acclimated to a Hargreaves apparatus and thermal nociception was monitored using an infrared heat source directed into the dorsal surface of the hindpaw, and the time taken for the animal to remove its paw noted to the nearest 0.1 seconds (see Hargreaves et al., supra, for detailed experimental method). The intensity of the beam source was adjusted such that the mean latency for control animals (non-STZ treated) was approximately 10 seconds. Each animal was tested 8 times and the mean difference score (between mean non-diabetic control latency and mean diabetic latency) are graphically presented in FIGS. 7A and 7B.

transgenic G1H mice = assay: Effect on onset of ALS in transgenic FALS mice; type: in vivo, mouse
Experimental: The effect of NAALADase inhibitors on the onset of ALS was tested using the transgenic mice model of familial Amyotrophic Lateral Sclerosis (FALS), which is detailed in Gurney, M., Annals of Neurology (1996) 39:147–157, and otherwise well known in the art. One month old transgenic G1H mice were treated with daily intraperitoneal injections of a vehicle (50 mM HEPES-buffered saline) or a NAALADase inhibitor (50 mg/kg Compound A). Clinical symptoms of the mice were monitored daily. The onset of clinical disease was scored by examining each mouse for its shaking of limbs when suspended in the air by its tail, cross spread of spinal reflexes, hindlimb paralysis, body weight and wheel running activity.

[5] = system: rats subjected to middle cerebral artery occlusion; assay: Effect of NAALADase inhibition on TGF-β in in vivo ischemia model (MCAO); design: species or system rat
Source text: The effect of TGF-β neutralizing antibodies on the neuroprotective effect of Compound C was also studied in rats following MCAO.

ischemic cell cultures = assay: Effect of NAALADase inhibition on TGF-β in in vitro ischemia model; type: cell-based
Experimental: A NAALADase inhibitor, Compound C, was added to ischemia cell cultures to determine its effect on TGF-β levels during stroke.
TGF-β neutralizing antibodies were then added to the ischemic cell cultures.

[6] = system: chronic constrictive injury-induced rats; assay: Neuropathic pain in chronic constriction injury (CCI) model; type: in vivo, rat; conditions: 50 mg/kg i.p. daily from 10 days post surgery, significant from 11 days of treatment
Experimental: Sciatic nerve ligation, consisting of 4 ligatures tied loosely around the sciatic nerve at 1 mm intervals proximal to the nerve trifurcation, was performed on rats. […] The rats were habituated to a Hargreaves apparatus. An infrared heat source was directed onto the dorsal surface of each rat's hindpaws and the time taken for the rat to withdraw its paws was noted. The difference in scores between the latency of the response for the paw on the operated side versus the paw on the unoperated control side was determined.
The rats received either Compound C (50 mg/kg i.p. daily) or a vehicle starting 10 days post surgery. […] Normal (unoperated) rats had approximately equal latencies for both paws. This effect was significant starting at 11 days of drug treatment and persisted through to the end of the study (for 21 days of daily dosing).

[7] = 2 weeks survival after transection
[8] = 4 weeks survival after transection

For `CC(=O)N[C@@H](CC(=O)O)C(=O)N[C@@H](CCC(=O)O)C(=O)O` [NAAG, N-acetyl-aspartyl-glutamate] (Ac-Asp-Glu-OH), the Km (NAALADase) is given as 0.54 µM.

For `O=C(O)CCC(CP(=O)(O)Cc1c(F)c(F)c(F)c(F)c1F)C(=O)O` (centres unmarked) [Compound A], the “FIBER NUMBER ± SEM” value [1] was 79156 ± 2436, the “PERCENT DIFFERENCE ± SEM in fiber number between glaucoma and normal eye” value ([1]; positive = fewer fibers in glaucoma eye) was −1.82 ± 2.92% and the “motor and sensory nerve conduction velocities” value (STZ-diabetic rats [2]) was “tended to improve (increase)”. For the same compound, the “remaining axons relative to saline-treated rats” value ([3]; 2 weeks after transection) was 3 times, the “FIBER NUMBER ± SEM” value [3, 7] was 26,426 ± 13,293 and the “PERCENT DIFFERENCE ± SEM in fiber number between transected and normal eye” value [3, 7] was 65.3 ± 17.8%. The “FIBER NUMBER ± SEM” value [3, 8] was 13,599 ± 3,519, the “PERCENT DIFFERENCE ± SEM in fiber number between transected and normal eye” value [3, 8] was 82.4 ± 4.0% and the “nerve conduction velocity deficits versus diabetic vehicle controls” value (BB/W diabetic rats; 10 mg/kg daily, from 8 weeks to six months) was “significantly less severe nerve conduction deficits”. The “withdrawal latency versus diabetic vehicle-treated rats” value (BB/W diabetic rats; 10 mg/kg i.p. daily, from 4 weeks through six months of treatment) was “longer withdrawal latencies”, the “hyperalgesic response (withdrawal latency difference score)” value (STZ-diabetic rats [4]) was “completely reversed” and the “DIFFERENCE in disease onset, treated versus vehicle” value (transgenic G1H mice; Study 1) was 32. For the same compound, the “DISEASE ONSET FOR COMPOUND A TREATED MICE” value (transgenic G1H mice; Study 1, 50 mg/kg i.p. daily) was 221 days, the “DIFFERENCE in disease onset, treated versus vehicle” value (transgenic G1H mice; Study 2) was 25 and the “DISEASE ONSET FOR COMPOUND A TREATED MICE” value (transgenic G1H mice; Study 2, 50 mg/kg i.p. daily) was 166 days.

In the case of `O=C(O)CCC(CP(=O)(O)O)C(=O)O` (centres unmarked) [Compound C, 2-(phosphonomethyl)-pentanedioic acid], the “neuroprotective effect in vivo with TGF-β neutralizing antibodies” value ([5]; FIG. 5) is reported as “significantly attenuated”, the “TGF-β1 levels during occlusion and reperfusion” value ([5]; microdialysis, FIG. 6) is reported as “significant rise” and the “TGF-β1 concentrations in ischemic cell cultures” value (ischemic cell cultures; FIG. 1) is reported as “increased concentrations”. The “TGF-β2 concentrations in ischemic cell cultures” value (ischemic cell cultures; FIG. 2) was “increased concentrations”, the “neuroprotective effect after addition of TGF-β neutralizing antibodies” value (ischemic cell cultures; in vitro ischemia model, FIG. 3) was “blocked” and the “neuroprotective effect after addition of FGF antibody” value (ischemic cell cultures; in vitro ischemia model, FIG. 4) was “did not block”. The “difference scores between the two paws (withdrawal latency)” value [6] was “dramatically normalized”.
